Here are results for two molecules from US6538151B1, “Modifications of 2-amino-4-(4-fluorobenzylamino)-1-ethoxycarbonylaminobenzene, and processes for their preparation” (Asta Medica Aktiengesellschaft, priority 1997, dated 2003).

Type in all cases: physicochemical
Series [1] is described as follows: Stability of the crystal structure (lattice) on heating and storage. As to the method: The crystal structure is stable up to approx. 80° C.
The nature of series [2]: Lattice stability on contact with solvents. To be noted: contact with solvents such as water, ethanol, acetone or toluene.
Series [3] can be described thus: Solubility behaviour of the crystals. To be noted: finely granular crystals. From the text:
The modifications B and C can be employed for specific pharmaceutical forms such as capsules and dry ampoules.

Turning to `CCOC(=O)Nc1ccc(NCc2ccc(F)cc2)cc1N` [modification A, 2-amino-4-(4-fluorobenzylamino)-1-ethoxycarbonylaminobenzene], the “lattice changes after storage” value in series [1] (relatively long storage at temperatures up to 60° C. and relative atmospheric humidities up to 70%) is on record as “no lattice changes are observed”. The “crystal structure is stable up to (temperature)” value in series [1] (solid state, temperature limit of lattice stability) was “approx. 80 °C”. Further, the “lattice change on contact with solvents” value in series [2] is on record as “no lattice change”.
On to `CCOC(=O)Nc1ccc(NCc2ccc(F)cc2)cc1N` [modification C, 2-amino-4-(4-fluorobenzylamino)-1-ethoxycarbonylaminobenzene], for which the “speed of dissolution of crystals” value in series [3] is recorded as “particularly rapidly soluble”.
